Source: US12583854B2, “KRAS G12C inhibitors and methods of using the same” (Amgen Inc., priority 2018, dated 2026)
Where a name gives a salt, the structure may show the parent alone. Read-outs that look alike come from different tables or passages of the source.

What was measured:
[1] = biological target: GDP-bound KRAS protein (aa 1-169), containing both G12C and C118A amino acid substitutions (Homo sapiens, UniProt P01116, C118A/G12C); assay: Coupled Nucleotide Exchange Assay; format: biochemical; conditions: 5 min compound pre-incubation; SOS-mediated nucleotide exchange, AlphaScreen
GDP-bound KRAS protein (aa 1-169), containing both G12C and C118A amino acid substitutions, sequence (P01116 1-169 isoform P01116-2 G12C/C118A): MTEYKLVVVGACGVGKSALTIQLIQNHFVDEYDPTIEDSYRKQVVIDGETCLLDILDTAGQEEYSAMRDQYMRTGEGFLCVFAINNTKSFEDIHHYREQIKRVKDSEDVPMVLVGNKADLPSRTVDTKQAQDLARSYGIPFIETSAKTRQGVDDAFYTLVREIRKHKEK
Description: Following compound pre-incubation, purified SOS protein (aa 564-1049) and GTP (Roche 10106399001) were added to the assay wells and incubated for an additional 30 min. To determine the extent of inhibition of SOS-mediated nucleotide exchange, purified GST-tagged cRAF (aa 1-149), nickel chelate AlphaLISA acceptor beads (PerkinElmer AL108R), and AlphaScreen glutathione donor beads (PerkinElmer 6765302) were added to the assay wells and incubated for 10 minutes. The assay plates were then read on a PerkinElmer EnVision Multilabel Reader, using AlphaScreen® technology, and data were analyzed using a 4-parameter logistic model to calculate IC50 values.

[2] = test system: Phosphorylation of ERK1/2 in MIA PaCa-2 cells; assay: Phospho-ERK1/2 MSD Assay; format: cell-based; conditions: EGF stimulation 10 ng/mL, 10 min, read-out: p-ERK IC50 (2 h)
Description: Phospho-ERK1/2 MSD Assay: MIA PaCa-2 (ATCC® CRL-1420™) and A549 (ATCC® CCL-185™) cells were cultured in RPMI 1640 Medium (ThermoFisher Scientific 11875093) containing 10% fetal bovine serum (ThermoFisher Scientific 16000044) and 1× penicillin-streptomycin-glutamine (ThermoFisher Scientific 10378016). Sixteen hours prior to compound treatment, MIA PaCa-2 were seeded in 96-well cell culture plates at a density of 25,000 cells/well and incubated at 37° C., 5% CO2. A compound dose-response titration was diluted in growth media, added to appropriate wells of a cell culture plate, and then incubated at 37° C., 5% CO2 for 2 (see Table 10). Following compound treatment, cells were stimulated with 10 ng/mL EGF (Roche 11376454001) for 10 min, washed with ice-cold Dulbecco's phosphate-buffered saline, no Ca^2+ or Mg^2+ (ThermoFisher Scientific 14190144), and then lysed in RIPA buffer (50 mM Tris-HCl pH 7.5, 1% Igepal, 0.5% sodium deoxycholate, 150 mM NaCl, and 0.5% sodium dodecyl sulfate) containing protease inhibitors (Roche 4693132001) and phosphatase inhibitors (Roche 4906837001). Phosphorylation of ERK1/2 in compound-treated lysates was assayed using Phospho-ERK1/2 Whole Cell Lysate kits (Meso Scale Discovery K151DWD) according to the manufacturer's protocol. Assay plates were read on a Meso Scale Discovery Sector Imager 6000, and data were analyzed using a 4-parameter logistic model to calculate IC50 values.

[3] = Homo sapiens, MIA PaCa-2, 2 h compound treatment

Coupled exchange IC50 (5 min; μM) [1] [µM] | IC50 [2, 3] [nM] | IC50 ([2]; 2 h compound treatment) [nM] | SMILES
0.06 | 120 |  | C=CC(=O)N1CCN(c2c(C#N)c(=O)n(-c3c(C(C)C)ccnc3C(C)C)c3nc(-c4ccccc4F)c(Cl)cc23)CC1 (racemic) [Example 8, 4-(4-Acryloylpiperazin-1-yl)-6-chloro-1-(2,4-diisopropylpyridin-3-yl)-7-(2-fluorophenyl)-2-oxo-1,2-dihydro-1,8-naphthyridine-3-carbonitrile]
0.20 | 150 |  | C=CC(=O)N1CCN(c2c(C#N)c(=O)n(-c3c(C)ccnc3C(C)C)c3nc(-c4ccccc4F)c(Cl)cc23)C[C@H]1C (single isomer, unassigned) [Example 6.7]
0.15 | 220 |  | C=CC(=O)N1CCN(c2c(C#N)c(=O)n(-c3c(C(C)C)ccnc3C(C)C)c3nc(-c4ccccc4C)c(Cl)cc23)CC1 (single isomer, unassigned) [Example 7, 4-(4-Acryloylpiperazin-1-yl)-6-chloro-1-(2,4-diisopropylpyridin-3-yl)-2-oxo-7-(o-tolyl)-1,2-dihydro-1,8-naphthyridine-3-carbonitrile]
 |  | 140 | C=CC(=O)N1CCN(c2c(C#N)c(=O)n(-c3c(C(C)C)ccnc3C(C)C)c3nc(-c4ccccc4C)c(Cl)cc23)CC1 (single isomer, unassigned) [Example 7.1, 4-(4-acryloylpiperazin-1-yl)-6-chloro-1-(2,4-diisopropylpyridin-3-yl)-2-oxo-7-(o-tolyl)-1,2-dihydro-1,8-naphthyridine-3-carbonitrile]
0.18 | 260 |  | C=CC(=O)N1[C@H](C)CN(c2c(C#N)c(=O)n(-c3c(C)ccnc3C(C)C)c3nc(-c4ccccc4F)c(Cl)cc23)C[C@@H]1C (single isomer, unassigned) [Example 7.7]
0.07 | 320 |  | C=CC(=O)N1CCN(c2c(C#N)c(=O)n(-c3c(C(C)C)ccnc3C(C)C)c3nc(-c4ccccc4F)c(Cl)cc23)CC1 (single isomer, unassigned) [Example 8.1, 4-(4-acryloylpiperazin-1-yl)-6-chloro-1-(2,4-diisopropylpyridin-3-yl)-7-(2-fluorophenyl)-2-oxo-1,2-dihydro-1,8-naphthyridine-3-carbonitrile]
0.12 |  | 160 | C=CC(=O)N1CCN(c2c(C#N)c(=O)n(-c3c(C(C)C)ccnc3C(C)C)c3nc(-c4ccccc4F)c(Cl)cc23)CC1 (single isomer, unassigned) [Example 8.2, 4-(4-acryloylpiperazin-1-yl)-6-chloro-1-(2,4-diisopropylpyridin-3-yl)-7-(2-fluorophenyl)-2-oxo-1,2-dihydro-1,8-naphthyridine-3-carbonitrile]
0.24 |  | 240 | C=CC(=O)N1CCN(c2c(C#N)c(=O)n(-c3c(C(C)C)ccnc3N(C)C)c3nc(-c4ccccc4F)c(Cl)cc23)CC1 (single isomer, unassigned) [Example 8.4, 4-(4-acryloylpiperazin-1-yl)-6-chloro-1-(2-(dimethylamino)-4-isopropylpyridin-3-yl)-7-(2-fluorophenyl)-2-oxo-1,2-dihydro-1,8-naphthyridine-3-carbonitrile]
0.25 | 160 |  | C=CC(=O)N1CCN(c2c(C#N)c(=O)n(-c3c(N(C)C)ccnc3C(C)C)c3nc(-c4ccccc4F)c(Cl)cc23)CC1 (single isomer, unassigned) [Example 8.6, 4-(4-acryloylpiperazin-1-yl)-6-chloro-1-(4-(dimethylamino)-2-isopropylpyridin-3-yl)-7-(2-fluorophenyl)-2-oxo-1,2-dihydro-1,8-naphthyridine-3-carbonitrile]
0.09 |  | 50 | C=CC(=O)N1CCN(c2c(C#N)c(=O)n(-c3c(C(C)C)ccnc3N(C)C)c3nc(-c4ccccc4F)c(Cl)cc23)CC1 (single isomer, unassigned) [Example 8.8, 4-(4-acryloylpiperazin-1-yl)-6-chloro-1-(2-(dimethylamino)-4-isopropylpyridin-3-yl)-7-(2-fluorophenyl)-2-oxo-1,2-dihydro-1,8-naphthyridine-3-carbonitrile]
0.15 | 120 |  | C=CC(=O)N1CCN(c2c(C#N)c(=O)n(-c3c(C)ccnc3C(C)C)c3nc(-c4ccccc4C)c(Cl)cc23)CC1 (single isomer, unassigned) [Example 11.1, 4-(4-acryloylpiperazin-1-yl)-6-chloro-1-(2-isopropyl-4-methylpyridin-3-yl)-2-oxo-7-(o-tolyl)-1,2-dihydro-1,8-naphthyridine-3-carbonitrile]
0.05 | 90 |  | C=CC(=O)N1CCN(c2c(C#N)c(=O)n(-c3c(C)ccnc3C(C)C)c3nc(-c4ccccc4C(C)C)c(Cl)cc23)CC1 (single isomer, unassigned) [Example 11.3, 4-(4-acryloylpiperazin-1-yl)-6-chloro-1-(2-isopropyl-4-methylpyridin-3-yl)-7-(2-isopropylphenyl)-2-oxo-1,2-dihydro-1,8-naphthyridine-3-carbonitrile]
0.4 | 720 |  | CC(C)c1ncnc(C(C)C)c1-n1c(=O)c(C#N)c(N2CCN(C(=O)/C=C/CN(C)C)CC2)c2cc(Cl)c(-c3ccccc3F)nc21 [Example 3, (E)-6-Chloro-1-(4,6-diisopropylpyrimidin-5-yl)-4-(4-(4-(dimethylamino)but-2-enoyl)piperazin-1-yl)-7-(2-fluorophenyl)-2-oxo-1,2-dihydro-1,8-naphthyridine-3-carbonitrile]
1.02 | 4470 |  | CC(C)c1ncnc(C(C)C)c1-n1c(=O)c(C#N)c(N2CCN(C(=O)/C=C/CN3CCCCC3)CC2)c2cc(Cl)c(-c3ccccc3F)nc21 [Example 3.1]
0.71 | 1260 |  | CC(C)c1ncnc(C(C)C)c1-n1c(=O)c(C#N)c(N2CCN(C(=O)/C=C/C3CCCN3C)CC2)c2cc(Cl)c(-c3ccccc3F)nc21 (stereo not drawn) [Example 3.2]
0.34 | 300 |  | CNC/C=C/C(=O)N1CCN(c2c(C#N)c(=O)n(-c3c(C(C)C)ncnc3C(C)C)c3nc(-c4ccccc4F)c(Cl)cc23)CC1 [Example 4, (E)-6-Chloro-1-(4,6-diisopropylpyrimidin-5-yl)-7-(2-fluorophenyl)-4-(4-(4-(methylamino)but-2-enoyl)piperazin-1-yl)-2-oxo-1,2-dihydro-1,8-naphthyridine-3-carbonitrile trifluoroacetate salt]
0.18 | 160 |  | CC(C)c1ncnc(C(C)C)c1-n1c(=O)c(C#N)c(N2CCN(C(=O)/C=C/CN)CC2)c2cc(Cl)c(-c3ccccc3F)nc21 [Example 4.1, (E)-4-(4-(4-aminobut-2-enoyl)piperazin-1-yl)-6-chloro-1-(4,6-diisopropylpyrimidin-5-yl)-7-(2-fluorophenyl)-2-oxo-1,2-dihydro-1,8-naphthyridine-3-carbonitrile]
0.70 | 760 |  | CC(C)c1ncnc(C(C)C)c1-n1c(=O)c(C#N)c(N2CCN(C(=O)/C=C/CNC3CC3)CC2)c2cc(Cl)c(-c3ccccc3F)nc21 [Example 5, (E)-6-Chloro-4-(4-(4-(cyclopropylamino)but-2-enoyl)piperazin-1-yl)-1-(4,6-diisopropylpyrimidin-5-yl)-7-(2-fluorophenyl)-2-oxo-1,2-dihydro-1,8-naphthyridine-3-carbonitrile]
0.44 | 560 |  | CC(C)NC/C=C/C(=O)N1CCN(c2c(C#N)c(=O)n(-c3c(C(C)C)ncnc3C(C)C)c3nc(-c4ccccc4F)c(Cl)cc23)CC1 [Example 5.1, (E)-6-chloro-1-(4,6-diisopropylpyrimidin-5-yl)-7-(2-fluorophenyl)-4-(4-(4-(isopropylamino)but-2-enoyl)piperazin-1-yl)-2-oxo-1,2-dihydro-1,8-naphthyridine-3-carbonitrile]
0.44 | 390 |  | CC(C)c1ncnc(C(C)C)c1-n1c(=O)c(C#N)c(N2CCN(C(=O)/C=C/CNC(C)(C)C)CC2)c2cc(Cl)c(-c3ccccc3F)nc21 [Example 5.2, (E)-4-(4-(4-(tert-butylamino)but-2-enoyl)piperazin-1-yl)-6-chloro-1-(4,6-diisopropylpyrimidin-5-yl)-7-(2-fluorophenyl)-2-oxo-1,2-dihydro-1,8-naphthyridine-3-carbonitrile]
